ChEMBL document CHEMBL5725658, “Spirocycle compounds and methods of making and using same” (2018)

Biological target: T1, Fatty-acid amide hydrolase 1 (Mus musculus, UniProt O08914)
T1 sequence (O08914 whole entry): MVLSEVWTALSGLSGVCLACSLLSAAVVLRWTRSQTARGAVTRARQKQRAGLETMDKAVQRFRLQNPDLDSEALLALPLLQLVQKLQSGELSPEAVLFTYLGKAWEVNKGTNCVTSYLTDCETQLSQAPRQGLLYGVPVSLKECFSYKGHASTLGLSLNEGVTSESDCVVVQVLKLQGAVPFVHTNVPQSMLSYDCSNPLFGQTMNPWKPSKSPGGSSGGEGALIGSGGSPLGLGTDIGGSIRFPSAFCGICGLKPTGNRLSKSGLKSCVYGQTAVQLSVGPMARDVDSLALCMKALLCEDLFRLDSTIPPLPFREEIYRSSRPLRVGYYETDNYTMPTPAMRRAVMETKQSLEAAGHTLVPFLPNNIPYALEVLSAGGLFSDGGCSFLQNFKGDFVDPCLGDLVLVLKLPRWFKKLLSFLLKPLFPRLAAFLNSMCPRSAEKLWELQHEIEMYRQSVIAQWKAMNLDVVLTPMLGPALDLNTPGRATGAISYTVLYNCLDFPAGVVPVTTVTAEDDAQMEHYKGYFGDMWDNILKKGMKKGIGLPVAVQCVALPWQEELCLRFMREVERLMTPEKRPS
Assay: In Vitro Competitive Activity-Based Protein Profiling: Proteomes (mouse brain membrane fraction or cell lysates) (50 μL, 1.0 mg/mL total protein concentration) were preincubated with varying concentrations of inhibitors at 37° C. After 30 min, FP¿Rh (1.0 μL, 50 μM in DMSO) was added and the mixture was incubated for another 30 min at 37° C. Reactions were quenched with SDS loading buffer (50 μL-4×) and run on SDS-PAGE. Following gel imaging, serine hydrolase activity was determined by measuring fluorescent intensity of gel bands corresponding to MAGL, ABHD6 and FAAH using ImageJ 1.43u software.

O=C(OC(C(F)(F)F)C(F)(F)F)N1CCC2(CCCN2Cc2ccc(OCCN3CCOCC3)cc2)CC1
IC50: > 1000 nM
